Literature values as cited in patent US7291352B2 (HerbalScience LLC, priority 2001, dated 2007).

Test system: gamma-aminobutyric acid (GABA) receptor uptake
Details: in micromolar concentrations

Row | SMILES | inhibition of GABA receptor uptake
1 | CN1CCC=C(C(=O)O)C1 [arecaidine] | inhibit
2 | O=C(O)C1=CCCNC1 [guvacine] | inhibit
